Assay results as given in ChEMBL document CHEMBL2150984, “Synthesis of fluorescent ristocetin aglycon derivatives with remarkable antibacterial and antiviral activities” (Eur J Med Chem, 2012).
≈ marks a conversion by molar mass, not a printed value.

What was measured:
[1] = tested on: Staphylococcus epidermidis; experiment: Antibacterial activity against biofilm forming Staphylococcus epidermidis ATCC 35984 by broth microdilution method; format: functional
[2] = tested on: Staphylococcus aureus; experiment: Antibacterial activity against methicillin-sensitive Staphylococcus aureus ATCC 29213 by broth microdilution method; format: functional
[3] = Cytotoxicity against MDCK cells assessed as minimum concentration required to cause microscopically detectable alteration measured on day 3 post infection by MTS assay; format: cell-based, Canis lupus familiaris; conditions: dog
[4] = tested on: Staphylococcus aureus; experiment: Antibacterial activity against methicillin-resistant Staphylococcus aureus ATCC 33591 by broth microdilution method; format: functional
[5] = tested on: H3N2 subtype; experiment: Antiviral activity against Influenza A/HK/7/87 infected in MDCK cells assessed as inhibition of virus-induced cytopathic effect measured on day 3 post infection by MTS assay; format: functional, organism-based; conditions: A/Hong Kong/7/1987(H3N2), 72 h
[6] = tested on: Enterococcus faecalis; experiment: Antibacterial activity against Enterococcus faecalis ATCC 15376 expressing vanA gene by broth microdilution method; format: functional
[7] = tested on: Enterococcus faecalis; experiment: Antibacterial activity against Enterococcus faecalis ATCC 29212 by broth microdilution method; format: functional
[8] = tested on: Influenza A virus; experiment: Antiviral activity against Influenza A/PR/8/34 infected in MDCK cells assessed as inhibition of virus-induced cytopathic effect measured on day 3 post infection by MTS assay; format: functional, organism-based; conditions: A/Puerto Rico/8/1934(H1N1), 72 h
[9] = tested on: Influenza B virus; experiment: Antiviral activity against Influenza B/HK/5/72 infected in MDCK cells assessed as inhibition of virus-induced cytopathic effect measured on day 3 post infection by MTS assay; format: functional, cell-based; conditions: B/Hong Kong/05/1972, MDCK, 72 h
[10] = tested on: Enterococcus faecalis; experiment: Antibacterial activity against Enterococcus faecalis ATCC 51299 expressing vanB gene by broth microdilution method; format: functional
[11] = tested on: Bacillus subtilis; experiment: Antibacterial activity against Bacillus subtilis ATCC 6633 by broth microdilution method; format: functional
[12] = tested on: Staphylococcus epidermidis; experiment: Antibacterial activity against Staphylococcus epidermidis expressing mecA gene by broth microdilution method; format: functional

| SMILES | MIC [1] | MIC [2] | MCC at 3 days [3] | MIC [4] | EC50 [5] | MIC [6] | MIC [7] | EC50 [8] | EC50 [9] | MIC [10] | MIC [11] | MIC [12] |
| --- | --- | --- | --- | --- | --- | --- | --- | --- | --- | --- | --- | --- |
| COC(=O)[C@H]1NC(=O)[C@H]2NC(=O)[C@H](NC(=O)[C@@H]3NC(=O)[C@H]4NC(=O)[C@H](NC(=O)[C@H](n5cc6ccccc6c5S[C@@H]5O[C@H](COC(C)=O)[C@@H](OC(C)=O)[C@H](OC(C)=O)[C@H]5OC(C)=O)c5ccc(O)c(c5)Oc5cc4cc(O)c5C)[C@H](O)c4ccc(cc4)Oc4cc3cc(c4O)Oc3ccc(cc3)[C@H]2O)c2ccc(O)c(c2)-c2c(O)cc(O)cc21 | 1 µg/mL (≈ 0.611 µM) | 2 µg/mL (≈ 1.22 µM) | ≥ 4 µM | 1 µg/mL (≈ 0.611 µM) | 0.072 µM | 8 µg/mL (≈ 4.89 µM) | 2 µg/mL (≈ 1.22 µM) | 0.16 µM | > 100 µM | 8 µg/mL (≈ 4.89 µM) | 8 µg/mL (≈ 4.89 µM) | 4 µg/mL (≈ 2.44 µM) |
| COC(=O)[C@H]1NC(=O)[C@H]2NC(=O)[C@H](NC(=O)[C@@H]3NC(=O)[C@H]4NC(=O)[C@H](NC(=O)[C@H](n5cc6ccccc6c5S[C@@H]5O[C@H](CO)[C@@H](O)[C@H](O)[C@H]5O)c5ccc(O)c(c5)Oc5cc4cc(O)c5C)[C@H](O)c4ccc(cc4)Oc4cc3cc(c4O)Oc3ccc(cc3)[C@H]2O)c2ccc(O)c(c2)-c2c(O)cc(O)cc21 | 4 µg/mL (≈ 2.72 µM) | 1 µg/mL (≈ 0.681 µM) | 20 µM | 1 µg/mL (≈ 0.681 µM) | 2.3 µM | 1 µg/mL (≈ 0.681 µM) | 1 µg/mL (≈ 0.681 µM) | 0.27 µM | > 100 µM | 2 µg/mL (≈ 1.36 µM) | 2 µg/mL (≈ 1.36 µM) | 1 µg/mL (≈ 0.681 µM) |
| COC(=O)[C@H]1NC(=O)[C@H]2NC(=O)[C@H](NC(=O)[C@@H]3NC(=O)[C@H]4NC(=O)[C@H](NC(=O)[C@H](n5cc6ccccc6c5S[C@@H]5O[C@H](COC(C)=O)[C@@H](OC(C)=O)[C@H](OC(C)=O)[C@H]5NC(C)=O)c5ccc(O)c(c5)Oc5cc4cc(O)c5C)[C@H](O)c4ccc(cc4)Oc4cc3cc(c4O)Oc3ccc(cc3)[C@H]2O)c2ccc(O)c(c2)-c2c(O)cc(O)cc21 | 4 µg/mL (≈ 2.45 µM) | 4 µg/mL (≈ 2.45 µM) | 20 µM | 4 µg/mL (≈ 2.45 µM) | 1.8 µM | 4 µg/mL (≈ 2.45 µM) | 4 µg/mL (≈ 2.45 µM) | 1.8 µM | > 100 µM | 4 µg/mL (≈ 2.45 µM) | 8 µg/mL (≈ 4.89 µM) | 4 µg/mL (≈ 2.45 µM) |
| COC(=O)[C@H]1NC(=O)[C@H]2NC(=O)[C@H](NC(=O)[C@@H]3NC(=O)[C@H]4NC(=O)[C@H](NC(=O)[C@H](n5cc6ccccc6c5Sc5ccccc5)c5ccc(O)c(c5)Oc5cc4cc(O)c5C)[C@H](O)c4ccc(cc4)Oc4cc3cc(c4O)Oc3ccc(cc3)[C@H]2O)c2ccc(O)c(c2)-c2c(O)cc(O)cc21 | 0.5 µg/mL (≈ 0.362 µM) | 1 µg/mL (≈ 0.723 µM) | 6.4 µM | 1 µg/mL (≈ 0.723 µM) | 0.68 µM | 4 µg/mL (≈ 2.89 µM) | 2 µg/mL (≈ 1.45 µM) | 0.67 µM | 1.4 µM | 1 µg/mL (≈ 0.723 µM) | 2 µg/mL (≈ 1.45 µM) | 1 µg/mL (≈ 0.723 µM) |
| COC(=O)[C@H]1NC(=O)[C@H]2NC(=O)[C@H](NC(=O)[C@@H]3NC(=O)[C@H]4NC(=O)[C@H](NC(=O)[C@H](n5cc6ccccc6c5Sc5nc6ccccc6s5)c5ccc(O)c(c5)Oc5cc4cc(O)c5C)[C@H](O)c4ccc(cc4)Oc4cc3cc(c4O)Oc3ccc(cc3)[C@H]2O)c2ccc(O)c(c2)-c2c(O)cc(O)cc21 | 2 µg/mL (≈ 1.39 µM) | 1 µg/mL (≈ 0.695 µM) | 20 µM | 0.5 µg/mL (≈ 0.347 µM) | 4 µM | 1 µg/mL (≈ 0.695 µM) | 0.5 µg/mL (≈ 0.347 µM) | 1.4 µM | 8.9 µM | 2 µg/mL (≈ 1.39 µM) | 2 µg/mL (≈ 1.39 µM) | 1 µg/mL (≈ 0.695 µM) |
| COC(=O)[C@H]1NC(=O)[C@H]2NC(=O)[C@H](NC(=O)[C@@H]3NC(=O)[C@H]4NC(=O)[C@H](NC(=O)[C@H](n5cc6ccccc6c5Sc5ncccn5)c5ccc(O)c(c5)Oc5cc4cc(O)c5C)[C@H](O)c4ccc(cc4)Oc4cc3cc(c4O)Oc3ccc(cc3)[C@H]2O)c2ccc(O)c(c2)-c2c(O)cc(O)cc21 | 2 µg/mL (≈ 1.44 µM) | 1 µg/mL (≈ 0.722 µM) | 20 µM | 1 µg/mL (≈ 0.722 µM) | 1.8 µM | 0.5 µg/mL (≈ 0.361 µM) | 0.5 µg/mL (≈ 0.361 µM) | 0.3 µM | > 100 µM | 0.5 µg/mL (≈ 0.361 µM) | 0.5 µg/mL (≈ 0.361 µM) | 0.5 µg/mL (≈ 0.361 µM) |
| COC(=O)[C@H]1NC(=O)[C@H]2NC(=O)[C@H](NC(=O)[C@@H]3NC(=O)[C@H]4NC(=O)[C@H](NC(=O)[C@H](n5cc6cc7ccccc7cc6c5Sc5ccccc5)c5ccc(O)c(c5)Oc5cc4cc(O)c5C)[C@H](O)c4ccc(cc4)Oc4cc3cc(c4O)Oc3ccc(cc3)[C@H]2O)c2ccc(O)c(c2)-c2c(O)cc(O)cc21 | 1 µg/mL (≈ 0.698 µM) | 0.5 µg/mL (≈ 0.349 µM) | 20 µM | 0.5 µg/mL (≈ 0.349 µM) | > 100 µM | 0.5 µg/mL (≈ 0.349 µM) | 0.5 µg/mL (≈ 0.349 µM) | > 100 µM | > 100 µM | 0.5 µg/mL (≈ 0.349 µM) | 0.5 µg/mL (≈ 0.349 µM) | 1 µg/mL (≈ 0.698 µM) |
| COC(=O)[C@H]1NC(=O)[C@H]2NC(=O)[C@H](NC(=O)[C@@H]3NC(=O)[C@H]4NC(=O)[C@H](NC(=O)[C@H](N)c5ccc(O)c(c5)Oc5cc4cc(O)c5C)[C@H](O)c4ccc(cc4)Oc4cc3cc(c4O)Oc3ccc(cc3)[C@H]2O)c2ccc(O)c(c2)-c2c(O)cc(O)cc21 [AGLYCORISTOCETIN] | – | – | > 100 µM | – | 6.8 µM | – | – | 2.3 µM | > 100 µM | – | – | – |
| NC12CC3CC(CC(C3)C1)C2 [AMANTADINE] | – | – | > 500 µM | – | 2.3 µM | – | – | 7.6 µM | > 500 µM | – | – | – |
| NC(=O)c1ncn([C@@H]2O[C@H](CO)[C@@H](O)[C@H]2O)n1 [RIBAVIRIN] | – | – | ≥ 20 µM | – | 8.9 µM | – | – | 6.8 µM | – | – | – | – |
| Cc1c(O)cc2cc1Oc1cc(ccc1O)[C@@H](N)C(=O)N[C@H]1C(=O)N[C@@H]2C(=O)N[C@H]2C(=O)N[C@H]3C(=O)N[C@H](C(=O)N[C@@H](C(=O)O)c4cc(O)cc(O[C@H]5O[C@H](CO)[C@@H](O)[C@H](O)[C@@H]5O)c4-c4cc3ccc4O)[C@H](O[C@H]3C[C@@H](N)[C@@H](O)[C@H](C)O3)c3ccc(cc3)Oc3cc2cc(c3O[C@H]2O[C@@H](CO[C@H]3O[C@H](C)[C@@H](O)[C@H](O)[C@@H]3O)[C@H](O)[C@@H](O)[C@@H]2O[C@H]2O[C@H](CO)[C@@H](O)[C@H](O)[C@@H]2O[C@H]2O[C@H](CO)[C@@H](O)[C@@H]2O)Oc2ccc(cc2)[C@H]1O [RISTOCETIN] | 2 µg/mL (≈ 0.974 µM) | 128 µg/mL (≈ 62.3 µM) | – | 32 µg/mL (≈ 15.6 µM) | – | 16 µg/mL (≈ 7.79 µM) | 4 µg/mL (≈ 1.95 µM) | – | – | 256 µg/mL (≈ 125 µM) | 16 µg/mL (≈ 7.79 µM) | 128 µg/mL (≈ 62.3 µM) |
| CN[C@H](CC(C)C)C(=O)N[C@H]1C(=O)N[C@@H](CC(N)=O)C(=O)N[C@H]2C(=O)N[C@H]3C(=O)N[C@H](C(=O)N[C@H](C(=O)O)c4cc(O)cc(O)c4-c4cc3ccc4O)[C@H](O)c3ccc(c(Cl)c3)Oc3cc2cc(c3O[C@@H]2O[C@H](CO)[C@@H](O)[C@H](O)[C@H]2O[C@H]2C[C@](C)(N)[C@H](O)[C@H](C)O2)Oc2ccc(cc2Cl)[C@H]1O [VANCOMYCIN] | – | – | – | – | – | 256 µg/mL (≈ 177 µM) | 1 µg/mL (≈ 0.69 µM) | – | – | 128 µg/mL (≈ 88.3 µM) | 0.5 µg/mL (≈ 0.345 µM) | – |
| CC(=O)N[C@H]1[C@H]([C@H](O)[C@H](O)CO)OC(C(=O)O)=C[C@@H]1NC(=N)N [ZANAMIVIR] | – | – | > 100 µM | – | 1.8 µM | – | – | 0.3 µM | 34 µM | – | – | – |
